Source: publication PMC2949399, “Gene Expression Signature-Based Screening Identifies New Broadly Effective Influenza A Antivirals” (PLoS ONE, 2010)
Like-named read-outs stand apart in the source and are kept apart here.

Columns and labels:
[1] = in vitro; details: human
[2] = test system: A/Lyon/969/09 (H1N1 SOIV); test: microbe, parasite or virus in culture; details: Influenza A virus
[3] = test system: A/Lyon/969/09 (H1N1 SOIV)
[4] = test system: influenza A viruses; type: cell-based, influenza A virus
[5] = test system: A/New Caledonia/20/99 (H1N1); test: microbe, parasite or virus in culture; details: Influenza A virus
[6] = test system: A/Chicken/Italy/2076/99 (H7N1); test: microbe, parasite or virus in culture; details: Influenza A virus, H7N1, A549, in Gallus gallus, 65 h
[7] = test system: A549 cells
[8] = test system: A/Turkey/582/2006 (H5N1); test: microbe, parasite or virus in culture; details: Influenza A virus
[9] = test system: A/Finch/England/2051/94 (H5N2); test: microbe, parasite or virus in culture; details: Influenza A virus, H5N2, A549, 65 h
[10] = test system: A/New Caledonia/20/99 (H1N1)
[11] = test system: A/Chicken/Italy/2076/99 (H7N1)
[12] = test system: A/Finch/England/2051/94 (H5N2)
[13] = test system: A/Turkey/582/2006 (H5N1)
[14] = H1N1, A549, 65 h, read-out: EC50 SOIV moi 0.2
[15] = H1N1, A549, 65 h, read-out: EC50 SOIV moi 2
[16] = H1N1, A549, 65 h, read-out: EC50 H1N1 moi 0.2
[17] = H1N1, A549, 65 h, read-out: EC50 H1N1 moi 2
[18] = H5N1, A549, 65 h, read-out: EC50 H5N1 moi 0.2
[19] = H5N1, A549, 65 h, read-out: EC50 H5N1 moi 2

## O=C(O)CNC(=O)C(CS)Cc1ccccc1 (racemic) [DL-Thiorphan]
[1]
  CC50: 6.28 mM

## Nc1ccccc1S(N)(=O)=O [2-Aminobenzenesulfonamide, 2-aminobenzenesulfonamide]
[2]; [14]
  EC50: 534 µM
[2]; [15]
  EC50: 1820 µM
[3]
  SI = CC50/EC50, H1N1 SOIV: 13
[1]
  CC50: > 6.9 mM
[4]
  Inhibitor class across the tested viruses: inefficient
[5]; [16]
  EC50: > 690 µM
[5]; [17]
  EC50: > 690 µM
[6]; read-out: EC50 H7N1 moi 0.2
  EC50: > 690 µM
[6]; read-out: EC50 H7N1 moi 2
  EC50: > 690 µM
[7]
  Cytotoxicity at the highest tested dose: none of these molecules was cytotoxic at the highest tested dose
[8]; [18]
  EC50: > 690 µM
[8]; [19]
  EC50: > 690 µM
[9]; read-out: EC50 H5N2 moi 0.2
  EC50: > 690 µM
[9]; read-out: EC50 H5N2 moi 2
  EC50: > 690 µM

## CCN[C@H]1CN(CCCOC)S(=O)(=O)c2sc(S(N)(=O)=O)cc21 [Brinzolamide, brinzolamide]
[10]
  Inhibitor class / antiviral effect, H1N1: moderate inhibitor
[2]; [14]
  EC50: 21.6 µM
[2]; [15]
  EC50: 167 µM
[3]
  SI = CC50/EC50, H1N1 SOIV: 31
[1]
  CC50: 0.666 mM
[4]
  Inhibitor class across the tested viruses: weak to moderate inhibitors
[5]; [16]
  EC50: 28.9 µM
[5]; [17]
  EC50: 435 µM
[6]; read-out: EC50 H7N1 moi 0.2
  EC50: 139 µM
[6]; read-out: EC50 H7N1 moi 2
  EC50: 551 µM
[11]
  Inhibitor class, H7N1: weak inhibitor
[8]; [18]
  EC50: > 500 µM
[8]; [19]
  EC50: > 500 µM
[9]; read-out: EC50 H5N2 moi 0.2
  EC50: 146 µM
[9]; read-out: EC50 H5N2 moi 2
  EC50: 232 µM
[12]
  Inhibitor class, H5N2: weak inhibitor

## Nc1nc2c(c(=O)[nH]1)N(C=O)C(CNc1ccc(C(=O)N[C@@H](CCC(=O)O)C(=O)O)cc1)CN2 (stereo partly drawn) [Calcium Folinate, calcium folinate]
[2]; [14]
  EC50: > 2400 µM
[2]; [15]
  EC50: > 2400 µM
[1]
  CC50: > 2.4 mM
[4]
  Inhibitor class across the tested viruses: inefficient
[5]; [16]
  EC50: > 800 µM
[5]; [17]
  EC50: > 800 µM
[6]; read-out: EC50 H7N1 moi 0.2
  EC50: > 800 µM
[6]; read-out: EC50 H7N1 moi 2
  EC50: > 800 µM
[7]
  Cytotoxicity at the highest tested dose: none of these molecules was cytotoxic at the highest tested dose
[8]; [18]
  EC50: > 800 µM
[8]; [19]
  EC50: > 800 µM
[9]; read-out: EC50 H5N2 moi 0.2
  EC50: > 800 µM
[9]; read-out: EC50 H5N2 moi 2
  EC50: > 800 µM

## C[S+](C)[O-] [DMSO, dimethylsulfoxide]
[10]; read-out: EC50 H1N1 moi 0.2
  EC50: 174 µM
[10]; read-out: EC50 H1N1 moi 2
  EC50: > 1600 µM
[3]; read-out: EC50 SOIV moi 0.2
  EC50: 344 µM
[3]; read-out: EC50 SOIV moi 2
  EC50: 606 µM
[13]; read-out: EC50 H5N1 moi 0.2
  EC50: 1830 µM
[13]; read-out: EC50 H5N1 moi 2
  EC50: > 1600 µM
[11]; read-out: EC50 H7N1 moi 0.2
  EC50: 801 µM
[11]; read-out: EC50 H7N1 moi 2
  EC50: 1110 µM
[12]; read-out: EC50 H5N2 moi 0.2
  EC50: 564 µM
[12]; read-out: EC50 H5N2 moi 2
  EC50: 734 µM

## Cc1nccc2c1[nH]c1cc(O)ccc12.Cl [Harmol, harmol hydrochloride]
[10]; read-out: EC50 H1N1 moi 0.2
  EC50: 20.5 µM
[10]; read-out: EC50 H1N1 moi 2
  EC50: 60.4 µM
[3]
  SI = CC50/EC50, H1N1 SOIV: 14
[3]; read-out: EC50 SOIV moi 0.2
  EC50: 6.76 µM
[3]; read-out: EC50 SOIV moi 2
  EC50: 53.7 µM
[13]; read-out: EC50 H5N1 moi 0.2
  EC50: 43.4 µM
[13]; read-out: EC50 H5N1 moi 2
  EC50: 77.5 µM
[7]
  CC50: 95 µM
[11]; read-out: EC50 H7N1 moi 0.2
  EC50: 28 µM
[11]; read-out: EC50 H7N1 moi 2
  EC50: 49.4 µM
[12]; read-out: EC50 H5N2 moi 0.2
  EC50: 13.5 µM
[12]; read-out: EC50 H5N2 moi 2
  EC50: 4.06 µM

## CO[C@@]1(NC(=O)C(C(=O)O)c2ccc(O)cc2)C(=O)N2C(C(=O)O)=C(CSc3nnnn3C)CO[C@@H]21 (stereo partly drawn) [Latamoxef, moxalactam]
[1]
  CC50: 0.593 mM

## O=C([O-])c1ccccc1-c1c2cc(Br)c(=O)cc-2oc2[c]([Hg+])c([O-])c(Br)cc12.[Na+].[Na+].[OH-] [Merbromin, merbromine]
[10]
  SI = CC50/EC50, H1N1: 2.01
[10]; read-out: EC50 H1N1 moi 0.2
  EC50: 62 µM
[10]; read-out: EC50 H1N1 moi 2
  EC50: 29.6 µM
[3]; read-out: EC50 SOIV moi 0.2
  EC50: > 50 µM
[3]; read-out: EC50 SOIV moi 2
  EC50: 37.5 µM
[4]; read-out: EC50 (all viruses tested)
  EC50: ~50 µM
[13]; read-out: EC50 H5N1 moi 0.2
  EC50: 46 µM
[13]; read-out: EC50 H5N1 moi 2
  EC50: 45 µM
[7]
  CC50: 104 µM
[11]
  SI = CC50/EC50, H7N1: 2.4
[11]; read-out: EC50 H7N1 moi 0.2
  EC50: 46.7 µM
[11]; read-out: EC50 H7N1 moi 2
  EC50: 43.7 µM
[12]
  SI = CC50/EC50, H5N2: 2.7
[12]; read-out: EC50 H5N2 moi 0.2
  EC50: 21.9 µM
[12]; read-out: EC50 H5N2 moi 2
  EC50: 36.5 µM

## Cc1cc(C(C)(C)CC(C)(C)C)ccc1OCCOCC[N+](C)(C)Cc1ccccc1 [Methylbenzethoniumchloride]
[7]
  CC50: 6.35 µM

## COc1ccc(OC)c(C(O)CNC(=O)CN)c1 (stereo not drawn) [Midodrine, midodrine]
[2]; [14]
  EC50: 109 µM
[2]; [15]
  EC50: 930 µM
[3]
  SI = CC50/EC50, H1N1 SOIV: 40
[1]
  CC50: > 4.25 mM
[4]
  Inhibitor class across the tested viruses: weak to moderate inhibitors
[5]; [16]
  EC50: 29.8 µM
[5]; [17]
  EC50: 1570 µM
[6]; read-out: EC50 H7N1 moi 0.2
  EC50: > 4250 µM
[6]; read-out: EC50 H7N1 moi 2
  EC50: > 4250 µM
[13]
  SI = CC50/EC50, H5N1: 1.09
[7]
  Cytotoxicity at the highest tested dose: none of these molecules was cytotoxic at the highest tested dose
[8]; [18]
  EC50: 3900 µM
[8]; [19]
  EC50: > 4250 µM
[9]; read-out: EC50 H5N2 moi 0.2
  EC50: 476 µM
[9]; read-out: EC50 H5N2 moi 2
  EC50: 1670 µM

## NC(=O)c1ncn([C@@H]2O[C@H](CO)[C@@H](O)[C@H]2O)n1 [Ribavirin, ribavirin]
[2]; [14]
  EC50: 61.1 µM
[2]; [15]
  EC50: 292 µM
[2]; H1N1, A549, read-out: EC50 SOIV moi 0.2
  EC50: 61 µM
[2]; H1N1, A549, read-out: EC50 SOIV moi 2
  EC50: 292 µM
[3]
  SI = CC50/EC50, H1N1 SOIV: 482
[1]
  CC50: 29.5 mM
[4]
  Inhibitor class across the tested viruses: strong inhibitor
[5]; [16]
  EC50: 6.63 µM
[5]; [17]
  EC50: 73.8 µM
[5]; H1N1, A549, read-out: EC50 H1N1 moi 0.2
  EC50: 6 µM
[6]; read-out: EC50 H7N1 moi 0.2
  EC50: 12.5 µM
[6]; read-out: EC50 H7N1 moi 2
  EC50: 32.4 µM
[13]
  SI = CC50/EC50, H5N1: 911
[11]
  SI = CC50/EC50, H7N1: 1367
[8]; [18]
  EC50: 48.4 µM
[8]; [19]
  EC50: 632 µM
[8]; H5N1, A549, read-out: EC50 H5N1 moi 2
  EC50: 632 µM
[9]; read-out: EC50 H5N2 moi 0.2
  EC50: 6.71 µM
[9]; read-out: EC50 H5N2 moi 2
  EC50: 16.4 µM

## C1COC(NC(C2CC2)C2CC2)=N1 [Rilmenidine]
[10]; read-out: EC50 H1N1 moi 0.2
  EC50: 24.2 µM
[10]; read-out: EC50 H1N1 moi 2
  EC50: 506 µM
[3]
  Inhibitor class / antiviral effect, H1N1 SOIV: ineffective
[3]; read-out: EC50 SOIV moi 0.2
  EC50: 864 µM
[3]; read-out: EC50 SOIV moi 2
  EC50: 1070 µM
[13]; read-out: EC50 H5N1 moi 0.2
  EC50: 1470 µM
[13]; read-out: EC50 H5N1 moi 2
  EC50: 2040 µM
[7]
  CC50: 1130 µM
[11]; read-out: EC50 H7N1 moi 0.2
  EC50: 778 µM
[11]; read-out: EC50 H7N1 moi 2
  EC50: 1050 µM
[12]; read-out: EC50 H5N2 moi 0.2
  EC50: 359 µM
[12]; read-out: EC50 H5N2 moi 2
  EC50: 514 µM

## COc1cnc(NS(=O)(=O)c2ccc(N)cc2)nc1 [Sulfameter]
[1]
  CC50: 4.16 mM

## CCCCCCCCNC(C)C(O)c1ccc(SC(C)C)cc1 (stereo not drawn) [Sulodictil]
[1]
  CC50: 0.1 mM

## CO[C@H]1/C=C\C=C(/C)C(=O)NC2=CC(=O)C(NCCN(C)C)=C(C[C@@H](C)C[C@H](OC)[C@H](O)[C@@H](C)/C=C(\C)[C@@H]1OC(N)=O)C2=O [alvespimycin, Alvespimycin]
[1]
  CC50: > 0.01 mM
